Test results as given in the kinase profiling compilation of Christmann-Franck et al. (2016).

Experiments:
Assay in all cases: radiometric filter-binding kinase assay
[1] = target: MAP2K2 (human) (UniProt P36507)
[2] = target: STK11 CAB39 STRADA (human) (UniProt Q9Y376+Q7RTN6+Q15831)
[3] = target: MARK4 (human) (UniProt Q96L34)
[4] = target: INSRR (human) (UniProt P14616)
[5] = target: TTK (human) (UniProt P33981)
[6] = target: FGFR1 (human) (UniProt P11362)
[7] = target: CSNK2A1 (human) (UniProt P68400)
[8] = target: IKBKB (human) (UniProt O14920)
[9] = target: NTRK1 (human) (UniProt P04629)
[10] = target: DAPK1 (human) (UniProt P53355)
DAPK1 (human), sequence (P53355 whole entry, looked up): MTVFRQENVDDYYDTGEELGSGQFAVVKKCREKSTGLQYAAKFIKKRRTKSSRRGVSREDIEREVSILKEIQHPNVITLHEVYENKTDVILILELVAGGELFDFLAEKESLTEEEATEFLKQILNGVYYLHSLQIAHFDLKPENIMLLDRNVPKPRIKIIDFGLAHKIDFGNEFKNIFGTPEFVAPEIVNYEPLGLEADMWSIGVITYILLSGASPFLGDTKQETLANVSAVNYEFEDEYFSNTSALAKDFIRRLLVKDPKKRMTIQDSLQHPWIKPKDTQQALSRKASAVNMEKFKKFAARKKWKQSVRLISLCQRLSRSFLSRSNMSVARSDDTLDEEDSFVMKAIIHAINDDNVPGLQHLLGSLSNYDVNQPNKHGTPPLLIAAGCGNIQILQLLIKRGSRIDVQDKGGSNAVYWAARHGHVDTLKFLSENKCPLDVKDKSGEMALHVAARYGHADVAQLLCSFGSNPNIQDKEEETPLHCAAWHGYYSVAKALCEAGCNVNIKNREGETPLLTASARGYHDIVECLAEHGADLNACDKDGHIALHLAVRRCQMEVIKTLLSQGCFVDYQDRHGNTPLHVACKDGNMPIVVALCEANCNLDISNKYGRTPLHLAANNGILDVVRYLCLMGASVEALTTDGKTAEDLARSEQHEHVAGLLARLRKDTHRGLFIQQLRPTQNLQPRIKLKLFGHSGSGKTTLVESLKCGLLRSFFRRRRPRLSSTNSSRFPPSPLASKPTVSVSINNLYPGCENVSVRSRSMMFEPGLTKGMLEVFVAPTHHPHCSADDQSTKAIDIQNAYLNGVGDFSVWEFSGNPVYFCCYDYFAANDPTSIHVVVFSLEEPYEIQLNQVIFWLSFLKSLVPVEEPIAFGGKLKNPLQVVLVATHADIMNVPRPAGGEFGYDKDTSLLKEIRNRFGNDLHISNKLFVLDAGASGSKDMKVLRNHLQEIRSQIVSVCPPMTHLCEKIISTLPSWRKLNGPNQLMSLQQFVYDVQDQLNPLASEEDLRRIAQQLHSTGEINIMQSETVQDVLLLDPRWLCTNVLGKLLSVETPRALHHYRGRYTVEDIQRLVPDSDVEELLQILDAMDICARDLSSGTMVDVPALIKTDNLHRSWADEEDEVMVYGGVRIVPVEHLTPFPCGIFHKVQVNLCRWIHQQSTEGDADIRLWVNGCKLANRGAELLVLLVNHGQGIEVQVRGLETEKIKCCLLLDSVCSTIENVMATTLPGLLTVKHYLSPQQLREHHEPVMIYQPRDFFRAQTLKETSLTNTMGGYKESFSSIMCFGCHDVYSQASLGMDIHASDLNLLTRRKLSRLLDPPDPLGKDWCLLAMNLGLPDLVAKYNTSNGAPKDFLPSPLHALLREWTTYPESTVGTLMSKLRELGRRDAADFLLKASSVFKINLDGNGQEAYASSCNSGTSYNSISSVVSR

[11] = target: GSK3B (human) (UniProt P49841)
[12] = target: MINK1 (human) (UniProt Q8N4C8)
[13] = target: EPHB3 (human) (UniProt P54753)
[14] = target: RPS6KA1 KD1 KD2 (human) (UniProt Q15418)
RPS6KA1 KD1 KD2 (human), sequence (Q15418 whole entry, looked up): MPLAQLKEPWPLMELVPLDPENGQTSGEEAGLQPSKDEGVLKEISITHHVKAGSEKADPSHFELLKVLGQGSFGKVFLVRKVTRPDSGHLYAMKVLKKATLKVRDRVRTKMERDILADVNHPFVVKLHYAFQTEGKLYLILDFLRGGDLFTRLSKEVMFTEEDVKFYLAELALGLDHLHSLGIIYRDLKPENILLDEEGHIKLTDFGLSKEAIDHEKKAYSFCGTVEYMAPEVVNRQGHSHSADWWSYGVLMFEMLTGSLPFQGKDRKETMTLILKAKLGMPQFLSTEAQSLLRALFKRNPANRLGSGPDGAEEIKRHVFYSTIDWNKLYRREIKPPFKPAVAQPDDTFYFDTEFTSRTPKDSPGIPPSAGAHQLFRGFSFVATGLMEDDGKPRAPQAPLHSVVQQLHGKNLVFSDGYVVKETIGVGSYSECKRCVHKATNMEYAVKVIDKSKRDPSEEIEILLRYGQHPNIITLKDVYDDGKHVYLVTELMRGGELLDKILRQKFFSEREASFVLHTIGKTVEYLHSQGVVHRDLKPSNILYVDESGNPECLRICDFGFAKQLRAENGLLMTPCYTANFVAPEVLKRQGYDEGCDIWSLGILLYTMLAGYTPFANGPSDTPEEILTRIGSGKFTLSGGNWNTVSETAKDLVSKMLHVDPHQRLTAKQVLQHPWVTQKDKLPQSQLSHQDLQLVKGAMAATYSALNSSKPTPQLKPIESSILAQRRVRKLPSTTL

[15] = target: AURKB (human) (UniProt Q96GD4)
[16] = target: MAPK13 (human) (UniProt O15264)
[17] = target: SRC (human) (UniProt P12931)
[18] = target: MAP3K9 (human) (UniProt P80192)
[19] = target: CHEK2 (human) (UniProt O96017)
[20] = target: MAPKAPK3 (human) (UniProt Q16644)
[21] = target: MKNK2 (human) (UniProt Q9HBH9)
[22] = target: MYLK (human) (UniProt Q15746)
MYLK (human), sequence (Q15746 whole entry, looked up): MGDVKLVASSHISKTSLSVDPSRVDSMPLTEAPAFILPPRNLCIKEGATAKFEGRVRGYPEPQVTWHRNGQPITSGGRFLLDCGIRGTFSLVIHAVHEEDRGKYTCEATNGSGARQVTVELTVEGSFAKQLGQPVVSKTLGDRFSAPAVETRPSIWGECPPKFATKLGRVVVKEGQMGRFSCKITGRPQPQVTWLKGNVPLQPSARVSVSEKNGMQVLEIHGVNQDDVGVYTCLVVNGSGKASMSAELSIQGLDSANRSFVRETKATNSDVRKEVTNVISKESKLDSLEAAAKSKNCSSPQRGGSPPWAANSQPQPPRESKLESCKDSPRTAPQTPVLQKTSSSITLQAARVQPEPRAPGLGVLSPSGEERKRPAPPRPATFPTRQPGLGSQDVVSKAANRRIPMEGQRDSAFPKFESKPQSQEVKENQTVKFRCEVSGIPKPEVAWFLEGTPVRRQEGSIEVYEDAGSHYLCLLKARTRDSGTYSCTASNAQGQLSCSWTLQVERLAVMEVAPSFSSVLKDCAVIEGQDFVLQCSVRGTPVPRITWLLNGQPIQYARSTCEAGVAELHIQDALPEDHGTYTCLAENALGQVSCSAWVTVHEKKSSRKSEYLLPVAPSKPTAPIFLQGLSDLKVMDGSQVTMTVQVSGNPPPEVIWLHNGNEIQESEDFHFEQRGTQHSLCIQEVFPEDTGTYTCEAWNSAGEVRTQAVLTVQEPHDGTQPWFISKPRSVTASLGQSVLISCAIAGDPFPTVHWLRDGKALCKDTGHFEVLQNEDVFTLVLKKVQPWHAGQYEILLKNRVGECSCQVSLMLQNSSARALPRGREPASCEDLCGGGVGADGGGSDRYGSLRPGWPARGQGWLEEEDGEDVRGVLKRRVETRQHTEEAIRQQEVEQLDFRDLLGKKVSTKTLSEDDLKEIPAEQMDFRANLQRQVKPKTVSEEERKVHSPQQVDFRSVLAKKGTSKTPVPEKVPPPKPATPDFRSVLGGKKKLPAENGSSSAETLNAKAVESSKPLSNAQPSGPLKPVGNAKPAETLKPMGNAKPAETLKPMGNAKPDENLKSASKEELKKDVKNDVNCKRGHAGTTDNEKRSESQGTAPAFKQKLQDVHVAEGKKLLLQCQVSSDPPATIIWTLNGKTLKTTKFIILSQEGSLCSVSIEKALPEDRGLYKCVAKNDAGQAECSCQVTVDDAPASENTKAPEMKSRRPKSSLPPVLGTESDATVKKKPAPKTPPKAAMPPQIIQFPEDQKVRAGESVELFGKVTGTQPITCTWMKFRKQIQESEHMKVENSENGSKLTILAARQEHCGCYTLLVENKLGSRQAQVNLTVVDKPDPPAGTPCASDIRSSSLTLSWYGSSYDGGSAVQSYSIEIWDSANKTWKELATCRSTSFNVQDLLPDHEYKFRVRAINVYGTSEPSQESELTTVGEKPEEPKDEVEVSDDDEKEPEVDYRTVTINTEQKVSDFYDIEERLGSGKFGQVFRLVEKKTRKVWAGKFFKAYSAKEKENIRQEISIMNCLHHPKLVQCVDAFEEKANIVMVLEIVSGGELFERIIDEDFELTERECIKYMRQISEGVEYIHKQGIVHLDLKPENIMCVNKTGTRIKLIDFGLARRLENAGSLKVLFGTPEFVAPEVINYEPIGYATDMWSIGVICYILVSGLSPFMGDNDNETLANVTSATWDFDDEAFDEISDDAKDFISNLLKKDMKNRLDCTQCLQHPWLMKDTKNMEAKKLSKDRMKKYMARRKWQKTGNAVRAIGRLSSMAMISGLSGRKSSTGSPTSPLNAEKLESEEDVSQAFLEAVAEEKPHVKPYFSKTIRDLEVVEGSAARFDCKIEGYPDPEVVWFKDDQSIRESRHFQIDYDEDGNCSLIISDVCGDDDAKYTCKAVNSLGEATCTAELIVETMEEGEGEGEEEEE

[23] = tested on: LCK (mouse); settings: accession and sequence are those of the human protein
[24] = target: CSK (human) (UniProt P41240)
[25] = target: PHKG1 (human) (UniProt Q16816)
[26] = target: MELK (human) (UniProt Q14680)
[27] = tested on: ROCK2 (rat); settings: accession and sequence are those of the human protein
[28] = target: ERBB4 (human) (UniProt Q15303)
[29] = target: MKNK1 (human) (UniProt Q9BUB5)
[30] = target: PRKCZ (human) (UniProt Q05513)
PRKCZ (human), sequence (Q05513 whole entry, looked up): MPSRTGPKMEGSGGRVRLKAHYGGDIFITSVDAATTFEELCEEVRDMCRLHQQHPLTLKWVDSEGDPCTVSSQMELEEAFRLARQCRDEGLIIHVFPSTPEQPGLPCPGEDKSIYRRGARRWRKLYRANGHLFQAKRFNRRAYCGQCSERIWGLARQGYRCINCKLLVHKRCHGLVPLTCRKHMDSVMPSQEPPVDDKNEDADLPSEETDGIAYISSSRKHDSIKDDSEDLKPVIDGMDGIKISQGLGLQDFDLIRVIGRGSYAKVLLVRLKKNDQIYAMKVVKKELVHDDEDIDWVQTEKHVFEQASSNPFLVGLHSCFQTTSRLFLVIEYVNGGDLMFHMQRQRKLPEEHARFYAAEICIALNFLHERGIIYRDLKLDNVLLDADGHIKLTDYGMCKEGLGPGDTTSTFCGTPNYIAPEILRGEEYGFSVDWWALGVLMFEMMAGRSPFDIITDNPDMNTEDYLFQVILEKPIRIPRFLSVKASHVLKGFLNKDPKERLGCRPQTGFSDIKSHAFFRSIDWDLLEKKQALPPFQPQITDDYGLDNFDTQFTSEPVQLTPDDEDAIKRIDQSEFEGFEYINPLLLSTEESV

[31] = tested on: PRKAA1 or PRKAA2 (rat); settings: accession and sequence are those of the human protein
[32] = target: MAPK1 (human) (UniProt P28482)
MAPK1 (human), sequence (P28482 whole entry, looked up): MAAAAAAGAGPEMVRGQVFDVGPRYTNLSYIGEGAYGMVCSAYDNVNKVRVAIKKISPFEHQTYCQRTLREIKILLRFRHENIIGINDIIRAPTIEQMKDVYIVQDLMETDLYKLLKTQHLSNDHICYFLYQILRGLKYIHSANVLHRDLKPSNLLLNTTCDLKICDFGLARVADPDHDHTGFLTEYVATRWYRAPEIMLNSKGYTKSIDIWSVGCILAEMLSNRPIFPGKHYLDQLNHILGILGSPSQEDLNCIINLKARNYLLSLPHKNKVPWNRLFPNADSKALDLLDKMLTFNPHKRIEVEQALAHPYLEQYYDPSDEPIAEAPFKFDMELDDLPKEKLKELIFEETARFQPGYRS

[33] = target: EEF2K (human) (UniProt O00418)
[34] = target: PRKACA (human) (UniProt P17612)
[35] = target: CDK2 CCNA2 (human) (UniProt P20248+P24941)

Structure (SMILES): NC(=O)c1ccc(-c2ccc(Oc3cncc4sc(-c5nn[nH]n5)cc34)cc2)cc1
- residual activity ([1]; compound 1.0 µM): 81%
- residual activity ([1]; compound 10.0 µM): 75%
- residual activity ([2]; compound 1.0 µM): 80%
- residual activity ([2]; compound 10.0 µM): 59%
- residual activity ([3]; compound 1.0 µM): 86%
- residual activity ([3]; compound 10.0 µM): 78%
- residual activity ([4]; compound 1.0 µM): 79%
- residual activity ([4]; compound 10.0 µM): 26%
- residual activity ([5]; compound 1.0 µM): 79%
- residual activity ([5]; compound 10.0 µM): 51%
- residual activity ([6]; compound 1.0 µM): 105%
- residual activity ([6]; compound 10.0 µM): 61%
- residual activity ([7]; compound 1.0 µM): 30%
- residual activity ([7]; compound 10.0 µM): 6%
- residual activity ([8]; compound 1.0 µM): 94%
- residual activity ([8]; compound 10.0 µM): 64%
- residual activity ([9]; compound 1.0 µM): 83%
- residual activity ([9]; compound 10.0 µM): 89%
- residual activity ([10]; compound 1.0 µM): 88%
- residual activity ([10]; compound 10.0 µM): 18%
- residual activity ([11]; compound 1.0 µM): 38%
- residual activity ([11]; compound 10.0 µM): 10%
- residual activity ([12]; compound 1.0 µM): 84%
- residual activity ([12]; compound 10.0 µM): 21%
- residual activity ([13]; compound 1.0 µM): 93%
- residual activity ([13]; compound 10.0 µM): 96%
- residual activity ([14]; compound 1.0 µM): 88%
- residual activity ([14]; compound 10.0 µM): 33%
- residual activity ([15]; compound 1.0 µM): 84%
- residual activity ([15]; compound 10.0 µM): 58%
- residual activity ([16]; compound 1.0 µM): 92%
- residual activity ([16]; compound 10.0 µM): 54%
- residual activity ([17]; compound 1.0 µM): 85%
- residual activity ([17]; compound 10.0 µM): 92%
- residual activity ([18]; compound 1.0 µM): 95%
- residual activity ([18]; compound 10.0 µM): 42%
- residual activity ([19]; compound 1.0 µM): 97%
- residual activity ([19]; compound 10.0 µM): 59%
- residual activity ([20]; compound 1.0 µM): 82%
- residual activity ([20]; compound 10.0 µM): 87%
- residual activity ([21]; compound 1.0 µM): 94%
- residual activity ([21]; compound 10.0 µM): 58%
- residual activity ([22]; compound 1.0 µM): 86%
- residual activity ([22]; compound 10.0 µM): 35%
- residual activity ([23]; compound 1.0 µM): 113%
- residual activity ([23]; compound 10.0 µM): 99%
- residual activity ([24]; compound 1.0 µM): 86%
- residual activity ([24]; compound 10.0 µM): 100%
- residual activity ([25]; compound 1.0 µM): 100%
- residual activity ([25]; compound 10.0 µM): 84%
- residual activity ([26]; compound 1.0 µM): 77%
- residual activity ([26]; compound 10.0 µM): 62%
- residual activity ([27]; compound 1.0 µM): 73%
- residual activity ([27]; compound 10.0 µM): 38%
- residual activity ([28]; compound 1.0 µM): 88%
- residual activity ([28]; compound 10.0 µM): 73%
- residual activity ([29]; compound 1.0 µM): 100%
- residual activity ([29]; compound 10.0 µM): 84%
- residual activity ([30]; compound 1.0 µM): 100%
- residual activity ([30]; compound 10.0 µM): 67%
- residual activity ([31]; compound 1.0 µM): 77%
- residual activity ([31]; compound 10.0 µM): 49%
- residual activity ([32]; compound 1.0 µM): 96%
- residual activity ([32]; compound 10.0 µM): 96%
- residual activity ([33]; compound 1.0 µM): 100%
- residual activity ([33]; compound 10.0 µM): 101%
- residual activity ([34]; compound 1.0 µM): 108%
- residual activity ([34]; compound 10.0 µM): 72%
- residual activity ([35]; compound 1.0 µM): 91%
- residual activity ([35]; compound 10.0 µM): 105%

Structure (SMILES): CCNc1nc(Nc2cc(F)c(C(=O)N3CCOCC3)cc2OC)ncc1C(F)(F)F
- residual activity ([1]; compound 1.0 µM): 93%
- residual activity ([1]; compound 10.0 µM): 90%
- residual activity ([2]; compound 1.0 µM): 89%
- residual activity ([2]; compound 10.0 µM): 86%
- residual activity ([3]; compound 1.0 µM): 91%
- residual activity ([3]; compound 10.0 µM): 67%
- residual activity ([4]; compound 1.0 µM): 90%
- residual activity ([4]; compound 10.0 µM): 67%
- residual activity ([5]; compound 1.0 µM): 52%
- residual activity ([5]; compound 10.0 µM): 32%
- residual activity ([6]; compound 1.0 µM): 118%
- residual activity ([6]; compound 10.0 µM): 95%
- residual activity ([7]; compound 1.0 µM): 95%
- residual activity ([7]; compound 10.0 µM): 82%
- residual activity ([8]; compound 1.0 µM): 91%
- residual activity ([8]; compound 10.0 µM): 93%
- residual activity ([9]; compound 1.0 µM): 81%
- residual activity ([9]; compound 10.0 µM): 63%
- residual activity ([10]; compound 1.0 µM): 43%
- residual activity ([10]; compound 10.0 µM): 9%
- residual activity ([11]; compound 1.0 µM): 90%
- residual activity ([11]; compound 10.0 µM): 83%
- residual activity ([12]; compound 1.0 µM): 115%
- residual activity ([12]; compound 10.0 µM): 93%
- residual activity ([13]; compound 10.0 µM): 83%
- residual activity ([14]; compound 1.0 µM): 21%
- residual activity ([14]; compound 10.0 µM): 8%
- residual activity ([15]; compound 1.0 µM): 55%
- residual activity ([15]; compound 10.0 µM): 18%
- residual activity ([16]; compound 1.0 µM): 102%
- residual activity ([16]; compound 10.0 µM): 98%
- residual activity ([17]; compound 1.0 µM): 87%
- residual activity ([17]; compound 10.0 µM): 83%
- residual activity ([18]; compound 1.0 µM): 25%
- residual activity ([18]; compound 10.0 µM): 3%
- residual activity ([19]; compound 1.0 µM): 12%
- residual activity ([19]; compound 10.0 µM): 2%
- residual activity ([20]; compound 1.0 µM): 91%
- residual activity ([20]; compound 10.0 µM): 108%
- residual activity ([21]; compound 1.0 µM): 62%
- residual activity ([21]; compound 10.0 µM): 23%
- residual activity ([22]; compound 1.0 µM): 31%
- residual activity ([22]; compound 10.0 µM): 6%
- residual activity ([23]; compound 1.0 µM): 108%
- residual activity ([23]; compound 10.0 µM): 101%
- residual activity ([24]; compound 1.0 µM): 101%
- residual activity ([24]; compound 10.0 µM): 94%
- residual activity ([25]; compound 1.0 µM): 23%
- residual activity ([25]; compound 10.0 µM): 3%
- residual activity ([26]; compound 1.0 µM): 90%
- residual activity ([26]; compound 10.0 µM): 43%
- residual activity ([27]; compound 1.0 µM): 85%
- residual activity ([27]; compound 10.0 µM): 72%
- residual activity ([28]; compound 1.0 µM): 97%
- residual activity ([28]; compound 10.0 µM): 70%
- residual activity ([29]; compound 1.0 µM): 92%
- residual activity ([29]; compound 10.0 µM): 45%
- residual activity ([30]; compound 1.0 µM): 99%
- residual activity ([30]; compound 10.0 µM): 83%
- residual activity ([31]; compound 1.0 µM): 75%
- residual activity ([31]; compound 10.0 µM): 56%
- residual activity ([32]; compound 1.0 µM): 99%
- residual activity ([32]; compound 10.0 µM): 71%
- residual activity ([33]; compound 1.0 µM): 116%
- residual activity ([33]; compound 10.0 µM): 107%
- residual activity ([34]; compound 1.0 µM): 96%
- residual activity ([35]; compound 1.0 µM): 102%
- residual activity ([35]; compound 10.0 µM): 79%
